The values that follow come from US6951731B2, “Method for evaluating inhibition of aspartic proteases” (priority 2001, dated 2005).

Where two headings read alike, the source gives them in different places. Where a SMILES comes first, the peptide text is derived from it. [ ]: non-standard residue; d: D form. The star is where a group is joined. Sta = CC(C)C[C@H](N)[C@@H](O)CC(=O)O; Isovaleryl = CC(C)CC(=O)*

Assay [1] has as its target T1, pepsin (Sus scrofa, UniProt P00791).
T1 construct: formed from pepsinogen A by limited proteolysis
Put plainly: Kinetics and solvent isotope effects of pepsin acting on synthetic substrates. It counts as biochemical, porcine. The following applies: for kcat (fitted pH-independent kinetic constant): re-analysis of Hunkapillar & Richards data. As to the method:
FIG. 2: Kinetics of pepsin acting on N-trifluroacetyl-L-phenylalanine as a function of pH (A) and pD (B). The fitted pH-independent kinetic constants are kcat=0.038±0.006 min^−1 in H2O and kcat=[…] in D2O. The dotted line indicates the range of carboxyl pKs consistent with the fitted line in D2O.
The response of low-barrier hydrogen bonds to D2O, as described herein, finally solves this 92 year-old mystery and simultaneously provides a means to evaluate the efficacy of potential aspartic protease inhibitors. During hydrolysis of N-trifluroacetyl-L-phenylalanine, Hunkapillar & Richards^10 observed bell-shaped pH profiles which were shifted to the right, but the upper pK profiles shifted to the left, thereby bringing them closer together. Normally, D2O shifts all pKs to the right about half a unit because of the fractionation factor of H3O^+.^11
The fit to the BELL rate equation of data obtained in H2O converged with pKs of 2.9±0.1 and 4.5±0.1, while those in D2O converged to the default separation of only 0.6 units, the minimum that is statistically possible. The fitted curve in FIG. 2B is the same for identical pKs of 3.84±0.08 or separated pKs of 3.5 and 4.1—or anything in between. Unknown in 1972, low-barrier hydrogen bonds are now understood to cause opposite shifts in the pKs of the conjugate bases participating in the bond. Both protonation and deprotonation of the low-barrier hydrogen bond complex are made more difficult, which shifts apparent pKs outwards in H2O but less so in D2O.^7
By comparing the maximal values of their fitted curves, Hunkapillar & Richards estimated that ^D2Okcat≈3. However, the appropriate comparison note between the absolute maxima, but between the pH-independent maxima,^11 represented by the horizontal bars in FIGS. 2A and 2B. This ratio yields ^D2Okcat=1.8±0.4 for pKs separated by 0.6 units, and lower values if the fractionation factor is greater than 0.3. […]

The target of assay [2] is T1, pepsin. To be noted: cited from earlier work; for D2Okcat (solvent isotope effect): pepsin, synthetic peptide substrate.
For assay [3], the target named is T1, pepsin. To be noted: cited from earlier work.
Assay [4] addresses T2, HIV-1 protease (Human immunodeficiency virus type 1 group M subtype B, UniProt P04585). To be noted: complex between HIV-1 protease and pepstatin; cited from earlier work.
The target in assay [5] is T2, HIV-1 protease. The following applies: cited from earlier work.
Where [6] appears, read: product inhibition, substrate Ac-Ser-Glu-Asp-Tyr*Phe-Leu-Asp-Gly-NH2 (SEQ. ID. NO: 2), read-out: Kii.
The mark [7] stands for this setting: product inhibition, substrate Ac-Ser-Glu-Asp-Tyr*Phe-Leu-Asp-Gly-NH2 (SEQ. ID. NO: 2), read-out: Kis.
Where [8] appears, read: substrate Ac-Ser-Glu-Asp-Tyr*Phe-Leu-Asp-Gly-NH2 (SEQ. ID. NO: 2), KH/KD.
Setting [9] is: pH 4.5, substrate Ac-Ser-Glu-Asp-Tyr*Phe-Val-Val-NH2 (SEQ. ID. NO: 6).

T1 sequence (P00791 60-385): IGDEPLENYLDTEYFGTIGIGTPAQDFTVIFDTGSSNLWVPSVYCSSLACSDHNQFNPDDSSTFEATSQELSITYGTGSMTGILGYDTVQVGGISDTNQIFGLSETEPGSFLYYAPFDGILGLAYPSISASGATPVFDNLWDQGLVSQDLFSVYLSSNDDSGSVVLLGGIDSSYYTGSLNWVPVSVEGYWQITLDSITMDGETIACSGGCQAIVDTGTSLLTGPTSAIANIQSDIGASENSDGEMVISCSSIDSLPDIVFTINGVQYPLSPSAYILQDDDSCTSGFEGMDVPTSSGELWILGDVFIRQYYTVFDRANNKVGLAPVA

In the case of `O=C(O)[C@H](Cc1ccccc1)NC(=O)C(F)(F)F` [N-trifluroacetyl-L-phenylalanine], the entries for the “kcat (fitted pH-independent kinetic constant)” value in assay [1] (in D2O) and in assay [1] (in H2O) were 0.022±2 min^−1 and 0.038±0.006 min^−1, respectively. Further, the D2Okcat was 1.8±0.4 in assay [1] (ratio of pH-independent maxima, pKs separated by 0.6 units) and “≈ 3” in assay [2] (estimated by Hunkapillar & Richards from maximal values of fitted curves).

With `CC(C)CC(=O)N[C@H](C(=O)N[C@H](C(=O)N[C@@H](CC(C)C)[C@@H](O)CC(=O)N[C@@H](C)C(=O)N[C@@H](CC(C)C)[C@@H](O)CC(=O)O)C(C)C)C(C)C` [pepstatin] (Isovaleryl-VV[Sta]A[Sta]-OH), the “D2Ok on slow onset of inhibition” value in assay [3] (pre-incubation experiments with free enzyme) is 0.69±0.09; in assay [3] (when catalysis is in progress) it was 1.25±0.09. In addition, the “Low-barrier hydrogen bond signal in proton NMR of the inhibited complex” value in assay [4] was “negative results”.

For the compound “Ac-Ser-Glu-Asp-Tyr (SEDY; printed: Ser-Glu-Asp-Tyr)”, the Ki in assay [5] (setting [6]) was 12 mM. In assay [5] (setting [7]), the Ki is 3.8 mM. Also, in assay [5] (setting [8]), the “D2OKii (solvent isotope effect on Kii)” value is on record as 3.8 ± 1.3 and the “D2OKis (solvent isotope effect on Kis)” value is reported as 4.2 ± 1.6.

As for Leu-Ser-Nph-Nle-Ala-Leu-OMe, in assay [2], the “D2Okcat (solvent isotope effect)” value is recorded as 1.51±0.02.

In the case of Lys-Lys-Ala-Lys-Phe-Nph-Arg-Leu, the “D2Okcat (solvent isotope effect)” value in assay [2] was 2.02±0.15.

With “Phe-Leu-Asp-Gly-NH2 (FLDG; printed: Phe-Leu-Asp-Gly-)”, the Ki in assay [5] (setting [6]) was 4 mM. Moreover, the Ki in assay [5] (setting [7]) was 12 mM. In addition, in assay [5] (setting [8]), the “D2OKii (solvent isotope effect on Kii)” value is 3.0 ± 0.9 and the “D2OKis (solvent isotope effect on Kis)” value is reported as 1.1 ± 0.4.

As for RASEDY [Ac-Arg-Ala-Ser-Glu-Asp-Tyr], the Ki in assay [5] (pH 3.5, substrate Ac-Ser-Glu-Asp-Tyr*Phe-Val-Val-NH2 (SEQ. ID. NO: 6), pattern uncompetitive, read-out: Kii) is 0.23 mM; in assay [5] (pH 6, substrate printed Ac-Ser-Glu-Asp-Tyr*Phe-Leu-Asp-Gly-NH2 (SEQ. ID. NO: 4), read-out: Kii) it was 8 mM; in assay [5] (pH 6, substrate printed Ac-Ser-Glu-Asp-Tyr*Phe-Leu-Asp-Gly-NH2 (SEQ. ID. NO: 4), read-out: Kis), 7 mM. In addition, the “D2OKii (solvent isotope effect on Kii)” value in assay [5] (setting [9]) is 1.0 ± 0.8; in assay [5] (pH 6, substrate SEQ. ID. NO: 4), 3.8 ± 1.3. For the same compound, the “D2OKis (solvent isotope effect on Kis)” value is recorded as 1.2 ± 0.4 in assay [5] (setting [9]) and 4.2 ± 1.6 in assay [5] (pH 6, substrate SEQ. ID. NO: 4).
